Measurements from patent US12077503B2, “Substituted cyclic amides and their use as herbicides” (FMC CORPORATION, priority 2015, dated 2024).
Like-named read-outs stand apart in the source and are kept apart here.

Assays:
Assay type in all cases: in vivo
[1] = system: ryegrass, Italian (Italian ryegrass, Lolium multiflorum); experiment: Test A postemergence; settings: Lolium multiflorum, post-emergence, 240 h; for pest or weed control at 125 g/ha: 125 g ai/ha; for pest or weed control at 500 g/ha: 500 g ai/ha; for pest or weed control at 31 g/ha: 31 g ai/ha
How it was run: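 Each rating is a visual injury score from 0 to 100 given about 10 d after treatment, judged against untreated controls kept alongside in the greenhouse. In loam soil–sand blend, seeds got a preemergence directed soil spray, while postemergence plants were 2 to 10 cm tall at spraying.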

[2] = system: barnyardgrass (Echinochloa crus-galli); experiment: Test B flooded paddy test; settings: Echinochloa crus-galli, Flood, 250 g ai/ha
How it was run: (§1)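 Rating scale 0–100 (visual, vs untreated controls) after a 13–15 d greenhouse period; application to the flood layer, 3 cm above soil and maintained; plants at 2-leaf stage when treated.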

[3] = system: ducksalad (Heteranthera limosa); experiment: Test B flooded paddy test; settings: Heteranthera limosa, Flood, 250 g ai/ha
How it was run: as §1

[4] = system: rice (Oryra sativa); experiment: Test B flooded paddy test; settings: Oryza sativa, Flood, 250 g ai/ha
How it was run: as §1

[5] = system: sedge, umbrella (small-flower umbrella sedge, Cyperus difformis); experiment: Test B flooded paddy test; settings: Cyperus difformis, Flood, 250 g ai/ha
How it was run: as §1

[6] = Postemergence, visual injury after approx. 10 d, 0 to 100 scale, 0 no effect, 100 complete control, read-out: Plant response rating, Ryegrass, Italian
[7] = Postemergence, visual injury, 0 to 100 scale (0 no effect, 100 complete control), approx. 10 d, read-out: Plant response rating, Ryegrass, Italian
[8] = postemergence, visual injury after approximately 10 d, 0 to 100 scale (0 no effect, 100 complete control), read-out: Plant response rating, Ryegrass, Italian
[9] = scale of 0 to 100 where 0 is no effect and 100 is complete control, read-out: Barnyardgrass plant response rating
[10] = scale of 0 to 100 where 0 is no effect and 100 is complete control, read-out: Ducksalad plant response rating
[11] = scale of 0 to 100 where 0 is no effect and 100 is complete control, read-out: Rice plant response rating
[12] = scale of 0 to 100 where 0 is no effect and 100 is complete control, read-out: Sedge, Umbrella plant response rating
[13] = 0 to 100 scale where 0 is no effect and 100 is complete control, read-out: Barnyardgrass plant response rating
[14] = 0 to 100 scale where 0 is no effect and 100 is complete control, read-out: Ducksalad plant response rating
[15] = 0 to 100 scale where 0 is no effect and 100 is complete control, read-out: Rice plant response rating
[16] = 0 to 100 scale where 0 is no effect and 100 is complete control, read-out: Sedge, Umbrella plant response rating

| SMILES | pest or weed control at 125 g/ha [1, 8] [%] | pest or weed control at 250 g/ha [2, 9] [%] | pest or weed control at 250 g/ha [3, 10] [%] | pest or weed control at 250 g/ha [4, 11] [%] | pest or weed control at 250 g/ha [5, 12] [%] | other results |
| --- | --- | --- | --- | --- | --- | --- |
| CSc1ccccc1NC(=O)[C@H]1C(=O)N(C)C[C@@H]1c1ccc(C(F)(F)F)cc1 [Compound 1391] |  |  |  |  |  | pest or weed control at 125 g/ha [1, 6]: 40%; pest or weed control at 500 g/ha [1, 7]: 60%; pest or weed control at 250 g/ha ([2]; 360 h, visually evaluated after 13 to 15 d, read-out: Plant response rating, Barnyardgrass (0 to 100 scale where 0 is no effect and 100 is complete control)): 0%; pest or weed control at 250 g/ha ([3]; 360 h, visually evaluated after 13 to 15 d, read-out: Plant response rating, Ducksalad (0 to 100 scale where 0 is no effect and 100 is complete control)): 75%; pest or weed control at 250 g/ha ([4]; 360 h, visually evaluated after 13 to 15 d, read-out: Plant response rating, Rice (0 to 100 scale where 0 is no effect and 100 is complete control)): 0%; pest or weed control at 250 g/ha ([5]; 360 h, visually evaluated after 13 to 15 d, read-out: Plant response rating, Sedge, Umbrella (0 to 100 scale where 0 is no effect and 100 is complete control)): 0% |
| COc1ccc([C@H]2CNC(=O)[C@@H]2C(=O)Nc2ccccc2S(C)(=O)=O)cc1F [Compound 721] | 0 | 0 | 100 | 0 | 0 |  |
| CSc1ccccc1NC(=O)[C@H]1C(=O)N(C)CC[C@@H]1c1ccc(C(F)(F)F)cc1 [Compound 1227] |  |  |  |  |  | pest or weed control at 125 g/ha ([1]; postemergence, visual injury vs untreated controls after approx. 10 d, 0 = no effect, 100 = complete control, read-out: Ryegrass, Italian plant response rating (0 to 100 scale)): 0%; pest or weed control at 500 g/ha ([1]; postemergence, 0 to 100 scale, 0 is no effect, 100 is complete control, read-out: Ryegrass, Italian plant response rating): 0%; pest or weed control at 250 g/ha [2, 13]: 0%; pest or weed control at 250 g/ha [3, 14]: 80%; pest or weed control at 250 g/ha [4, 15]: 15%; pest or weed control at 250 g/ha [5, 16]: 0% |
| Cc1cc(F)cc([C@H]2CN(C)C(=O)[C@@H]2C(=O)Nc2cccc(F)c2C#N)c1 [Compound 800] | 20 | 95 | 95 | 30 | 0 | pest or weed control at 31 g/ha [1, 6]: 0% |
| CN1C[C@H](c2cccc(C(F)(F)F)c2)[C@@H](C(=O)Nc2ccccc2C2CC2)C1=O [Compound 749] | 0 | 0 | 20 | 0 | 0 |  |
| Cc1ccc([C@H]2CNC(=S)[C@@H]2C(=O)Nc2cccc(F)c2F)cc1C [Compound 765] | 40 | 40 | 100 | 20 | 0 |  |
| Cc1cc([C@H]2CN(C)C(=O)[C@@H]2C(=O)Nc2cccc(F)c2F)cc(C)c1C [Compound 796] | 40 | 70 | 90 | 40 | 0 | pest or weed control at 31 g/ha [1, 6]: 0% |
| COc1cc([C@H]2CN(C)C(=O)[C@@H]2C(=O)Nc2ccccc2F)ccc1F [Compound 1298] |  |  |  |  |  | pest or weed control at 125 g/ha ([1]; Postemergence, visual rating about 10 d after treatment, read-out: Ryegrass, Italian plant response rating (0 to 100 scale)): 0%; pest or weed control at 500 g/ha [1, 7]: 0%; pest or weed control at 250 g/ha [2, 13]: 50%; pest or weed control at 250 g/ha [3, 14]: 80%; pest or weed control at 250 g/ha [4, 15]: 15%; pest or weed control at 250 g/ha [5, 16]: 0% |
| CCc1cc(CC)cc([C@H]2CN(C)C(=O)[C@@H]2C(=O)Nc2ccccc2F)c1 [Compound 735] | 60 | 60 | 40 | 0 | 0 |  |
| CN1C[C@H](c2ccc(F)c(OC(F)(F)C(F)F)c2)[C@@H](C(=O)Nc2ccccc2F)C1=O [Compound 740] | 50 | 60 | 100 | 50 | 0 |  |
| Cc1ccc([C@H]2CN(C)C(=O)[C@@H]2C(=O)Nc2cccc(F)c2F)c(F)c1 [Compound 730] | 40 | 75 | 95 | 0 | 0 |  |
